The record followed here is EP2435019B1, “DODECA-2E,4E-DIENE AMIDES AND THEIR USE AS MEDICAMENTS AND COSMETICS” (Dr. August Wolff GmbH & Co. KG Arzneimittel, priority 2009, dated 2010).

Series [1] can be described thus: Critical micelle concentration (CMC) measurement, dye micellization. Particulars: fluorescein dye micellization in water, pH 6.9, room temperature. The series is classed as physicochemical. The method, then:
Dye micellization was carried out with a modified version of the method described by Eliyahu et al., Novel dextran-spermine conjugates as transfecting agents: comparing water-soluble and micellar polymers. […] Experiments were carried out on 96-well microtiter plates (excitation at 485 nm, emission at 535 nm). Since the emission of fluorescein is pH-dependent, the pH of the mixture was kept constant at 6.9. The CMC range was determined as the concentration range where the first statistically significant increase in fluorescence was detected.

A further series has as its target T1, FAAH (Sus scrofa, UniProt Q9TUI8).
T1 construct: 165 µl of diluted pig brain homogenate; from tissue; host or cells: pig brain homogenate
T1 sequence (Q9TUI8 1-579): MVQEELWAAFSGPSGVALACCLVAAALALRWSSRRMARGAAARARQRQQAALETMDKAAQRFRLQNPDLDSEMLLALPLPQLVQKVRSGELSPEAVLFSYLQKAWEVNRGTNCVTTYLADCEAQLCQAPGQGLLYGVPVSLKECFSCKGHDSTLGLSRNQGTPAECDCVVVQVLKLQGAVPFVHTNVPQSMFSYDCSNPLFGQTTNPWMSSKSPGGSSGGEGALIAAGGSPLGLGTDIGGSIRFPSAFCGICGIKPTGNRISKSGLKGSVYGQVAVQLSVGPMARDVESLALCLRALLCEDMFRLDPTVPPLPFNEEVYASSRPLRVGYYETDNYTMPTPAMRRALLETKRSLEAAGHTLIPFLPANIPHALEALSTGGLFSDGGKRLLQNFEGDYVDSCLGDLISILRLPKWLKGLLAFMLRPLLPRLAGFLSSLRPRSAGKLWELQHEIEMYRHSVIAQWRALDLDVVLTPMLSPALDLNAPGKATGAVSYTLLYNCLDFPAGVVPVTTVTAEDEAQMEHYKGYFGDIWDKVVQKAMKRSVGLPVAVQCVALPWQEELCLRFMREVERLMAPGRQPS
Nature of the series: Fatty acid amide hydrolase (FAAH) inhibition, pig brain homogenate (assay D). The series is classed as biochemical. How it is done:
FAAH activity was assessed using pig brain homogenate according to the method described by Omeir et al., Arachidonoyl ethanolamide-[1,2-14C] as a substrate for anandamide amidase. Life Sci. 1995;56(23-24):1999-2005, and adapted by Fowler et al., Ibuprofen inhibits rat brain deamidation of anandamide at pharmacologically relevant concentrations. Mode of inhibition and structure-activity relationship. J Pharmacol Exp Ther. 1997 Nov;283(2):729-34. Briefly, 10 µl of test compounds at the adequate concentration or solvent were incubated at 37°C for 20 min with 165 µl of diluted pig brain homogenate in 10 mM Tris-HCl and 1 mM EDTA, pH 7.6 (corresponding to 100 µg/ml of total protein), 1% w/v fatty acid free BSA (Sigma, San Louis, MO, US) and 25 µl of a mixture 1:1 of nonradioactive AEA [^3H]-AEA (60 Ci mmol^-1) (concentration in the assay was 2 µM). Successively, 400 µl of a mixture 1:1 (v/v) of methanol:chloroform was added at each sample and, after vigorous vortexing, aqueous and organic phases were separated by centrifugation at 10000 rpm for 10 min. The radioactivity associated to the [^3H]-ethanolamine (produced by FAAH-catalysed breakdown of [^3H]-AEA) was measured upon addition of 3 ml of Ultima Gold scintillation liquid (Perkin Elmer, Waltham, MA, US) to 200 µl of the aqueous (upper) phase, using a Beckman LS6500 scintillation counter. Results were expressed as % of FAAH activity vs. pig brain homogenate treated only with solvent.

For a further series, the system named is Anandamide transport. Nature of the series: Anandamide transport (human) cellular functional assay (assay F). The series is classed as cell-based. The note with it: human U-937 cells, 0.1 µM [3H]-Anandamide, 20 min (assay F). How it is done:
Anandamide transport is determined using human U-937 cells as receptor source. [3H]-Anandamide (0.1 Ci/mmol), final concentration 0.1 µM is used as substrate. AM-404 is used as reference compound. Reactions are carried out in KRH buffer (pH 7.4) at 37°C for 20 min. The reaction is terminated by rapid vacuum filtration onto glass fiber filters. Radioactivity trapped onto filters is determined and compared to control values in order to ascertain any interactions of test compound with anandamide uptake (Hiiliard C.J. The movement of N-arachidonylethanolamide (anandamide) across cellular membranes. Chem. Physics Lipids. 2008;108:123-134, with modifications).

Series [2] concerns the target T2, human recombinant Fatty acid amide hydrolase (Homo sapiens, UniProt O00519).
T2 sequence (O00519 1-579): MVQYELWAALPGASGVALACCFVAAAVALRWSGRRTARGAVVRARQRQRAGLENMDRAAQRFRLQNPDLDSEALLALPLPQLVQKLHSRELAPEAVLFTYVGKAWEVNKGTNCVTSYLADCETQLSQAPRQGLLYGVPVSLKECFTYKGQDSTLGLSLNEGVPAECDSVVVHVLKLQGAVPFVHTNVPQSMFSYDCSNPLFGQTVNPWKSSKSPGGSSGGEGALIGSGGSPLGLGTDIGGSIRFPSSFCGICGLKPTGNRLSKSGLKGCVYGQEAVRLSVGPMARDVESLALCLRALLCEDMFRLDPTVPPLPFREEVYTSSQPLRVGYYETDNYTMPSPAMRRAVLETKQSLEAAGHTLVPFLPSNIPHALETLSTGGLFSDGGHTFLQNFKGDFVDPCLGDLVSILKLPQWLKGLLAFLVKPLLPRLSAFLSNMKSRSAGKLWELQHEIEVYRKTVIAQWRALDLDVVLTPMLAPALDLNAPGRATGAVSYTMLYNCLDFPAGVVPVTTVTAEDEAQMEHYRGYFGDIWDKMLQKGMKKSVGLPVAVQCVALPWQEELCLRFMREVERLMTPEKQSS
Nature of the series: Inhibition of human recombinant FAAH, fluorometric method (assay G). The series is classed as biochemical. Particulars: human recombinant enzyme, AMC-anandamide substrate (assay G). The method, then: FAAH activity is measured using the modified method described by Omeir et al., Arachidonoyl ethanolamide-[1,2-14C] as a substrate for anandamide amidase. Life Sci. 1995;56(23-24):1999-2005. Human recombinant enzyme is preincubated with reference compound (methylarachidonlyfluorophosphonate, MAFP) and test compounds for 30 min at room temperature in 50 mM Tris containing 1 mM EDTA and 0.1% fatty acid free BSA (pH 8.0). Substrate (7-amino-4-methyl coumarin-arachidonamide, AMC-anandamide) is then added and incubated for 30 min at room temperature. The reaction is stopped by the addition of 2.5 µl of 10 µM URB597. Released 7-amino-4-methyl coumarin (AMC) is detected by fluorometry in order to ascertain any interactions of test compounds with the FAAH enzyme.

Series [3] has as its system Arachidonoylethanolamide Transport (AEAT). Nature of the series: Cellular uptake of [3H]-AEA in U937 cells (assay C). The note with it: Homo sapiens, U-937; [3H]-AEA uptake, assay C (Tables 2 and 3). The series is classed as cell-based.

In the case of `CCCCCCC/C=C/C=C/C(=O)NCc1ccoc1` [Example 4, (2E,4E)-N-(furan-3-ylmethyl)dodeca-2,4-diene amide], the CMC in series [1] is less than 3 µM. The inhibition at 2 µM on FAAH (read-out: max. inhibition of FAAH activity) worked out at 40%.

For `CCCCCCC/C=C/C=C/C(=O)NCc1cccn1C` [Example 5], the CMC in series [1] is given as less than 1 µM. On FAAH (read-out: maximal inhibition of FAAH activity), the inhibition at 1 µM is 32%.

`CCCCCCC/C=C/C=C/C(=O)NCc1ccc(OC)cc1` [Example 7, (2E,4E)-N-(4-methoxybenzyl)dodeca-2,4-diene amide]: the “effect on FAAH activity in combination with the FAAH inhibitor URB597” value at FAAH (Figure 3, low nM concentrations) is given as “synergistic effects”. Further, the “AEAT inhibition at 1 µM” value in the series on Anandamide transport is 28 % of control. The “FAAH inhibition at 1 µM” value in series [2] is reported as 6 % of control.

As for `CCCCCCC/C=C/C=C/C(=O)NCCc1ccco1` [Example 16], the “AEAT inhibition at 1 µM” value with Anandamide transport was 57 % of control. Besides, the “FAAH inhibition at 1 µM” value in series [2] is listed as 42 % of control. Besides, the EC50 in series [3] is 890 ± 400 nM.

With `CCCCCCC/C=C/C=C/C(=O)NCCc1ccsc1` [Example 19], in the series on Anandamide transport, the “AEAT inhibition at 1 µM” value is listed as 34 % of control. Besides, the “FAAH inhibition at 1 µM” value in series [2] was 53 % of control. Besides, a half-maximal response in series [3] (EC50) required 520 ± 470 nM.

For `CCCCCCC/C=C/C=C/C(=O)Nc1nccs1` [Example 20], in the series with Anandamide transport, the “AEAT inhibition at 1 µM” value is 47 % of control. In addition, the “FAAH inhibition at 1 µM” value in series [2] is -16 % of control. Also, the response in series [3] was half-maximal at 780 ± 250 nM (EC50).

In the case of `CCCCCCC/C=C/C=C/C(=O)Nc1ccccc1` [Example 24], in the series on Anandamide transport, the “AEAT inhibition at 1 µM” value is 30 % of control. Also, in series [2], the “FAAH inhibition at 1 µM” value is on record as 2 % of control.

For `CCCCCCC/C=C/C=C/C(=O)NCc1ccccc1` [Example 25], the “AEAT inhibition at 1 µM” value with Anandamide transport is given as 47 % of control. Besides, the “FAAH inhibition at 1 µM” value in series [2] is reported as 2 % of control.

As for `CCCCCCC/C=C/C=C/C(=O)Nc1nc2ccccc2s1` [Example 35], the “AEAT inhibition at 1 µM” value in the series on Anandamide transport is 42 % of control. In series [2], the “FAAH inhibition at 1 µM” value is 61 % of control.

As to `CCCCCCC/C=C/C=C/C(=O)Nc1ccc(C2=NCCS2)cc1` [Example 37], the “AEAT inhibition at 1 µM” value in the series with Anandamide transport is on record as 38 % of control. Moreover, in series [2], the “FAAH inhibition at 1 µM” value is listed as 9 % of control.

As for `CCCCCCC/C=C/C=C/C(=O)NCc1nnn(C(=O)N(C)C)n1` [Example 39], the “AEAT inhibition at 1 µM” value in the series on Anandamide transport was 120 % of control. In series [2], the “FAAH inhibition at 1 µM” value was 101 % of control.

For `CCCCCCC/C=C/C=C/C(=O)NCC(C)O` (stereo not shown) [Example 41], the “AEAT inhibition at 1 µM” value with Anandamide transport is on record as 27 % of control. For the same molecule, the “FAAH inhibition at 1 µM” value in series [2] is 45 % of control.

For the molecule `CCCCCCC/C=C/C=C/C(=O)NCCc1ccnc(OC)c1` [Example 47], in the series on Anandamide transport, the “AEAT inhibition at 1 µM” value was 50 % of control. For the same molecule, in series [2], the “FAAH inhibition at 1 µM” value is reported as 6 % of control.

Take `CCCCCCC/C=C/C=C/C(=O)NC(CO)Cc1cccs1` (stereo not shown) [Example 49]: the “AEAT inhibition at 1 µM” value in the series on Anandamide transport is 25 % of control. The “FAAH inhibition at 1 µM” value in series [2] is recorded as 25 % of control.

Consider `CCCCCCC/C=C/C=C/C(=O)NCC(O)c1ccc(OC)cc1` (stereo not shown) [Example 56], for which the “AEAT inhibition at 1 µM” value with Anandamide transport was 36 % of control. The “FAAH inhibition at 1 µM” value in series [2] is on record as -1 % of control.

Consider `CCCCCCC/C=C/C=C/C(=O)NCCc1ccccn1` [Example 68], for which the “AEAT inhibition at 1 µM” value with Anandamide transport was 41 % of control. For the same molecule, the “FAAH inhibition at 1 µM” value in series [2] is reported as -2 % of control.

On to `CCCCCCC/C=C/C=C/C(=O)Nc1nc2cc(C)c(C)cc2s1` [Example 72], for which the “AEAT inhibition at 1 µM” value with Anandamide transport is given as 37 % of control. The “FAAH inhibition at 1 µM” value in series [2] is on record as 30 % of control.

In the case of `CCCCCCC/C=C/C=C/C(=O)Nc1ccc(Oc2ccc(C(F)(F)F)cc2)cc1` [Example 84], the “AEAT inhibition at 1 µM” value in the series on Anandamide transport is on record as 30 % of control. The “FAAH inhibition at 1 µM” value in series [2] is given as 30 % of control.
